Counter-ions that a name gives are not always drawn.
Each compound was assayed on UQ-deficient cells (Mclk1 KO or DKO cells) (assay: Screening for compounds that increase survival or respiration of UQ-deficient cells).
Assay type: cell-based, mouse
Excerpt: Four different screening methods were developed. The screening methods 1 to 3 are based on rescue-of-lethality in glucose-free galactose-containing media. The presence of galactose instead of glucose forces the cells to rely on oxidative phosphorylation for energy production. Screening method 4 is based on rescue of respiration, implying that processes immediately dependent on UQ have been rescued. Libraries of small molecules were screened for compounds and/or agents that increase survival of UQ-deficient cells (e.g., Mclk1 KO or DKO cells) in standard or modified galactose media depending on the screen settings.
The screen uses cells lacking UQ (e.g., Mclk1 KO cells) and consists of three key steps: • 1) Day 0: preparation of Mclk1 KO cells in 96-well plates in standard (glucose-containing) culture medium. • 2) Day 1: changing to glucose-free galactose-containing medium and adding compounds to be screened at a concentration of approximately 10 μM. • 3) Day 4 to 6: following 3 to 5 days of incubation with the compound to be screened, media were removed and cell viability was assayed by resazurin reduction assay.
The screen also uses cells lacking UQ biosynthesis (e.g., DKO cells) and its protocol is essentially the same as the galactose-only screen except that in step 2, a minimal amount of UQ10 is added into the galactose screening media at a concentration at which the added UQ10 is insufficient by itself to support survival.
The screen uses Mclk1 SKO cells and its protocol is essentially the same as the galactose-only screen except that in step 2, the screening medium is added with 2,4-DHB at a concentration that allows the KO cells to restore some UQ biosynthetic ability but not sufficiently to allow for a level of UQ production that is sufficient for respiration-dependent growth. Thus, under these conditions a compound that can boost the overall level of UQ biosynthesis might allow the cells to make enough UQ to survive in a respiration-dependent medium. Such a screen can identify compounds that boost UQ biosynthesis at any level, including at the level of gene expression.
This screening approach aims to directly identify compounds that can boost mitochondrial respiratory chain activity in respiration-deficient cells. […] For this, cells were seeded into XF24 V7 culture plates and treated with testing compounds for 1 to 2 days before a treatment effect on cellular respiration is measured using the Seahorse XF-24e Flux Analyzer. The XF assay was the same as above described except galactose (10 mM) rather glucose was used as the sugar source to increase respiration rate and thus assay sensitivity.
For `CCc1c2c(nc3ccc(OC(=O)N4CCC(N5CCCCC5)CC4)cc13)-c1cc3c(c(=O)n1C2)COC(=O)[C@]3(O)CC` [irinotecan], the “identified by the screening methods as useful for UQ deficiency” value (“identified by the screening methods” for short) was “identified”.
`CC1=C(CC(=O)O)c2cc(F)ccc2/C1=C\c1ccc([S+](C)[O-])cc1` (stereo not drawn) [sulindac] was tested, and the “identified by the screening methods” value was “identified”.
For `CS(=O)(=O)N1CCc2c(-c3cnc(N)nc3)nc(N3CCOCC3)nc21` [CH5132799], the “identified by the screening methods” value was “identified”.
With `CCCCC(=O)O[C@]1(C(=O)CO)[C@@H](C)C[C@H]2[C@@H]3CCC4=CC(=O)C=C[C@]4(C)[C@@]3(F)[C@@H](O)C[C@@]21C` [betamethasone valerate] the “identified by the screening methods” value was “identified”.
`C[C@]12CCC(=O)C=C1CC[C@@H]1[C@@H]2[C@@H](O)C[C@@]2(C)[C@H]1CC[C@]2(O)C(=O)CO` [hydrocortisone] was tested, and the “identified by the screening methods” value was “identified”.
`C[C@@H]1C[C@H]2[C@@H]3CCC4=CC(=O)C=C[C@]4(C)[C@@]3(Cl)[C@@H](O)C[C@]2(C)[C@@]1(OC(=O)c1ccco1)C(=O)CCl` [mometasone furoate] was tested, and the “identified by the screening methods” value was “identified”.
In the case of `CC(=O)OCC(=O)[C@@]1(O)CC[C@H]2[C@@H]3CCC4=CC(=O)C=C[C@]4(C)[C@@]3(Cl)[C@@H](Cl)C[C@@]21C` [dichlorisone acetate], the “identified by the screening methods” value is reported as “identified”.
In the case of `CC(=O)OCC(=O)[C@@]12N=C(C)O[C@@H]1C[C@H]1[C@@H]3CCC4=CC(=O)C=C[C@]4(C)[C@H]3[C@@H](O)C[C@@]12C` [deflazacort], the “identified by the screening methods” value is reported as “identified”.
`Nc1nc(N)c2nc(-c3cccc(O)c3)cnc2n1` [TG100713] was tested, and the “identified by the screening methods” value was “identified”.
For `C[C@H]1c2cccc(O)c2C(=O)C2=C(O)[C@]3(O)C(=O)C(C(N)=O)=C(O)[C@@H](N(C)C)[C@@H]3[C@@H](O)[C@@H]21` [doxycycline HCl], the “identified by the screening methods” value was “identified”.
For `CNC(=O)Nc1ccc(-c2nc(N3CC4CCC(C3)O4)c3cnn(C4CCC5(CC4)OCCO5)c3n2)cc1` [WYE-125132], the “identified by the screening methods” value was “identified”.
In the case of `C[C@@H]1COCCN1c1cc(C2(S(C)(=O)=O)CC2)nc(-c2cccc3[nH]ccc23)n1` [AZ20], the “identified by the screening methods” value is reported as “identified”.
For `CCC(=O)OCC(=O)[C@@]1(OC(=O)CC)[C@@H](C)C[C@H]2[C@@H]3CCC4=CC(=O)C=C[C@]4(C)[C@@]3(F)[C@@H](O)C[C@@]21C` [betamethasone dipropionate], the “identified by the screening methods” value was “identified”.
`CC(=O)OCC(=O)[C@@]1(O)CC[C@H]2[C@@H]3CCC4=CC(=O)C=C[C@]4(C)[C@H]3[C@@H](O)C[C@@]21C` [prednisolone acetate] was tested, and the “identified by the screening methods” value was “identified”.
With `CC1(C)CCC(CN2CCN(c3ccc(C(=O)NS(=O)(=O)c4ccc(NCC5CCOCC5)c([N+](=O)[O-])c4)c(Oc4cnc5[nH]ccc5c4)c3)CC2)=C(c2ccc(Cl)cc2)C1` [ABT-199] the “identified by the screening methods” value was “identified”.
`CC(C)C[C@H](NC(=O)CNC(=O)c1cc(Cl)ccc1Cl)B(O)O` [MLN2238] was tested, and the “identified by the screening methods” value was “identified”.
`CC1(C)O[C@@H]2C[C@H]3[C@@H]4CCC5=CC(=O)CC[C@]5(C)[C@@]4(F)[C@@H](O)C[C@]3(C)[C@]2(C(=O)CCl)O1` [halcinonide] was tested, and the “identified by the screening methods” value was “identified”.
With `CCC(=O)O[C@]1(C(=O)SCF)[C@H](C)C[C@H]2[C@@H]3C[C@H](F)C4=CC(=O)C=C[C@]4(C)[C@@]3(F)[C@@H](O)C[C@@]21C` [fluticasone propionate] the “identified by the screening methods” value was “identified”.
`CNC(=O)c1cccc(-c2ccc3c(N4CCOC[C@@H]4C)nc(N4CCOC[C@@H]4C)nc3n2)c1` [AZD2014] was tested, and the “identified by the screening methods” value was “identified”.
With `COc1cc2c(cc1Cc1cccc(Cl)c1F)c(=O)c(C(=O)O)cn2[C@H](CO)C(C)C` [elvitegravir] the “identified by the screening methods” value was “identified”.
With `CCc1c2c(nc3ccc(O)cc13)-c1cc3c(c(=O)n1C2)COC(=O)[C@]3(O)CC` [SN-38] the “identified by the screening methods” value was “identified”.
